Experimental data as given in US5455286A, “Bioactive composition” (priority 1994, dated 1995).

Tests used:
[1] = dog, in vivo, 480 min
Protocol: (§1) The experiments were carried out on male beagle dogs, each roughly 10 kg in weight. […] The dogs were restrained in a dog sling. Approximately 10 mg of propranolol was administered nasally to each dog by spraying an appropriate amount of the present formulations containing propranolol into both nostrils of the dog using a metered dose dispenser (typically 2 sprays over a two minute period). The amount of drug administered nasally was obtained by weighing the dispenser before and after spraying.
(§2) Blood samples were withdrawn at desired intervals from each dog through a cannula inserted in the cephalic vein. The blood samples were centrifuged immediately after the collection and the plasma samples were stored frozen until assayed. The assay for propranolol consisted of HPLC separation and UV/fluorescence detection.
(§3) The area under the curve (AUC) has been normalized to the amount of propranolol administered.

in vivo = conditions: dog
Protocol: as §1, §2, §3

CC(C)NCC(O)COc1cccc2ccccc12 (centres unmarked) [Propranolol, propranolol]
AUC/IV-AUC [1]: 1.00 | Tmax (in vivo; iv): 0.05 h | Cmax (in vivo; po): 3 ng/mL | Tmax (in vivo; po): 2 h | bioavailability at 8 h (in vivo; po): 4%
